From paper PMC7108740, “Exploring the molecular structures that confer ligand selectivity for galanin type II and III receptors” (PLoS ONE, 2020) come the findings set out here.

Ends that are not written are not given here.

As usually defined, the EC50 is the concentration needed to bring the measured effect to its halfway point.

Format in all cases: cell-based
For experiment [1], the target named is T1, GALR3 single mutant A^187C (Homo sapiens, UniProt O60755, A187C).
T1 construct: expressed in transfected cells; host or cells: HEK293 cells stably expressing Gqi
T1 sequence (O60755 whole entry A187C): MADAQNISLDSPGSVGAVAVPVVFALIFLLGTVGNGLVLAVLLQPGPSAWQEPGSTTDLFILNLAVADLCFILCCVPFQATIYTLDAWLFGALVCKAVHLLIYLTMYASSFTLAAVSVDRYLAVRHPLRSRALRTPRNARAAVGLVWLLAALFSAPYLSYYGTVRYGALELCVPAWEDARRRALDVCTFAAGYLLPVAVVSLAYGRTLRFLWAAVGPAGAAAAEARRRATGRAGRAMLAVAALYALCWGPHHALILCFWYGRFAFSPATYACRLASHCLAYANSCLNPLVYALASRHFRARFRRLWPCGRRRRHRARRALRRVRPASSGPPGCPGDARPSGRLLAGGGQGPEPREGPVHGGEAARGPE
The experiment is described as follows: SRE-luc luciferase assay, GALR3 A187C. As to conditions: GALR3 A^187C; SRE-luc in HEK293 Gqi cells, ligand 6 h; mean ± S.E.; SEM. The source says:
(§1) For domain swapping between GALR2 and GALR3, individual cDNA fragments of interest were amplified by polymerase chain reaction (PCR) with Pfu polymerase (ELPIS Biotech, Daejeon, Korea) and two specific primers, one corresponding to the 5' or 3' end of the GALR2 or GALR3 cDNA and the other to the region of overlap between the two receptors. The two resulting fragments, one from GALR2 and the other from GALR3, were subjected to a second round of PCR to generate the chimeric cDNAs. To construct single, double-, triple-, pentuple-, hextuple-, and septuple-mutant receptors, amino acids of GALR3 were substituted for the amino acids at the corresponding positions in GALR2 using PCR-based site-directed mutagenesis. All of the chimeric constructs were cloned into the pcDNA3 expression vector at HindⅢ and XbaⅠ sites. The DNA sequences of the chimeras were verified by automatic sequencing. […] The luciferase activity in 50 μl cell extract was determined using a luciferase assay system according to the standard protocol for the Synergy 2 Multi-Mode Microplate Reader (BioTek, Winooski, VT, USA). […] The concentrations of agonists that induced half-maximal stimulation (EC50) were calculated using the GraphPad PRISM5 software (GraphPad software, Inc., San Diego, CA). […]

Experiment [2] addresses T2, GALR3 mutant A^190V,A^191F,G^192S (Homo sapiens, UniProt O60755, A190V/A191F/G192S).
T2 construct: expressed in transfected cells; host or cells: HEK293 cells stably expressing Gqi
The experiment is described as follows: SRE-luc luciferase assay, GALR3 A190V,A191F,G192S. To be noted: GALR3 A^190V,A^191F,G^192S; SRE-luc in HEK293 Gqi cells, ligand 6 h; mean ± S.E.; SEM.
Source text: as §1

The next experiment concerns the target T3, GALR3 septuple (Homo sapiens, UniProt O60755, A190V/A191F/C272L/G192S/L100F/Y103F/Y107H).
T3 construct: expressed in transfected cells; host or cells: HEK293 cells stably expressing pGlosensor-22F cAMP plasmid
T3 sequence (O60755 1-368 L100F/Y103F/Y107H/A190V/A191F/G192S/C272L): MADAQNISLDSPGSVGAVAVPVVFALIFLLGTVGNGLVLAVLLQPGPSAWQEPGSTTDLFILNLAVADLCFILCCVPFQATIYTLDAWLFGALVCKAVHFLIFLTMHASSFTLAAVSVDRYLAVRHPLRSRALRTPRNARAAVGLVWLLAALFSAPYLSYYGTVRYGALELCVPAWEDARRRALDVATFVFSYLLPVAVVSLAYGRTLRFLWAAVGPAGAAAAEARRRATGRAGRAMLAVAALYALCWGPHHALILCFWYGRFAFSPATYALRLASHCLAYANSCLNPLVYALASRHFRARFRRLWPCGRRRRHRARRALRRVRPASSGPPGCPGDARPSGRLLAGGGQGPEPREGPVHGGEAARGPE
The experiment is described as follows: cAMP assay (inhibition of forskolin-induced cAMP), GALR3 septuple mutant. As to conditions: Glosensor-22F cAMP HEK293 cells, agonist 10 min then forskolin 10 μM, mean ± SE, SEM. The protocol: SPX-induced or Qu-SPX-induced cyclic adenosine monophosphate (cAMP) mobilization was measured in HEK293 cells stably expressing the pGlosensor^TM-22F cAMP plasmid (Promega Corp., Madison, WI, USA). The Glosensor-22F cAMP HEK293 cells were seeded on 96-well plates at a density of 2.0 × 10^4 cells/well 24 h before transfection. A mixture including 100 ng expression plasmid and lipofectamine 2000 reagent in diluted Opti-MEM (Gibco) was incubated at room temperature for 20 min. The mixtures were added into each well according to the manufacturer's instructions (Invitrogen, CA, USA). After 48 h, Glosensor cAMP substrates were added to the transfected cells in CO2-independent media. After 2 h, the cells were incubated with a range of agonist concentrations or vehicle for 10 min and then exposed to foskolin (10 μM). Luminescence was measured for up to 30 min using a Microplate Reader (BioTek, Winooski, VT, USA).
Data analysis was performed by non-linear regression with a sigmoidal dose-response curve. The concentrations of agonists that induced half-maximal stimulation (EC50) were calculated using the GraphPad PRISM5 software (GraphPad software, Inc., San Diego, CA). All data are presented as the mean ± standard error (SE) of at least three independent experiments. […]
On the technique in general: Changes in cAMP serve as a functional read-out for many G protein-coupled receptors.

The target in experiment [3] is T4, GALR3 single mutant S^266T (Homo sapiens, UniProt O60755, S266T).
T4 construct: expressed in transfected cells; host or cells: HEK293 cells stably expressing Gqi
T4 sequence (O60755 whole entry S266T): as the sequence (O60755 whole entry A187C) above, with C187A, S266T counted along it
The experiment is described as follows: SRE-luc luciferase assay, GALR3 S266T. As to conditions: GALR3 S^266T; SRE-luc in HEK293 Gqi cells, ligand 6 h; mean ± S.E.; SEM.
Source text: as §1

T2 sequence (O60755 whole entry A190V/A191F/G192S): as the sequence (O60755 whole entry A187C) above, with C187A, A190V, A191F, G192S counted along it

Take NWTPQAMLYLKGPQ-NH2 [P^13-SPX]: the EC50 in experiment [1] was determined as 0.55 ± 0.151 µM; in experiment [2], 0.123 ± 0.0398 µM.
As for `CSCC[C@H](NC(=O)[C@H](C)NC(=O)[C@H](CCC(N)=O)NC(=O)[C@@H]1CCCN1C(=O)[C@@H](NC(=O)[C@H](Cc1c[nH]c2ccccc12)NC(=O)[C@@H](N)CC(N)=O)[C@@H](C)O)C(=O)N[C@@H](CC(C)C)C(=O)N[C@@H](Cc1ccc(O)cc1)C(=O)N[C@@H](CC(C)C)C(=O)N[C@@H](CCCCN)C(=O)NCC(=O)N[C@@H](C)C(=O)N[C@@H](CCC(N)=O)C(N)=O` [SPX, reference compound], the EC50 on GALR3 septuple came out at 0.0776 ± 0.0387 µM; in experiment [1], 0.115 ± 0.0277 µM; in experiment [2], 0.0339 ± 0.011 µM; in experiment [3] it was 0.038 ± 0.0105 µM.
